Assay results published in article PMC7700373, “Polyphenolic and Methylxanthine Bioaccessibility of Cocoa Bean Shell Functional Biscuits: Metabolomics Approach and Intestinal Permeability through Caco-2 Cell Models” (Antioxidants, 2020).
Like-named read-outs stand apart in the source and are kept apart here.

How the values were obtained:
[1] = system: Caco-2 cell monolayers
[2] = Single compound bioaccessibility: LC–HRMS intensities after in vitro gastrointestinal digestion vs other extractions; assay type: in vitro ADME; settings: whole sample set, Dig vs Org and No_Dig
Method: Five grams of each sample underwent in vitro gastrointestinal digestion. The simulated digestion was performed following the three-stage model (oral, gastric, and intestinal phases) proposed by the INFOGEST consortium and described by Minekus et al. [13] with the slight modifications described in [14]. Briefly, during the oral phase (2 min), samples were mixed at 37 °C in a SW-20 water bath (Julabo GmbH, Seelbach, Germany) with an electrolyte solution to simulate salivary fluid and with amylase enzyme. Samples then underwent a gastric phase (2 h) in which they were mixed with simulated gastric fluid and pepsin enzyme. Finally, during the intestinal phase (2 h), samples from the gastric phase were mixed with simulated intestinal fluid, bile salts, and pancreatin. Solutions were adjusted to pH 3 and 7 for the gastric and intestinal phases, respectively, with a MICROpH 2002 pH-meter (CRISON, Carpi, Italy), and the digestion process was stopped by bringing the pH down to 5.4. Samples were then centrifuged at 12,500× g and 0 °C for 10 min in a Heraeus megafuge 11R centrifuge (THERMO electron, Chateau-Gontier (France), and the supernatants were filtered through a 0.45 μm CA syringe filters and immediately stored at −20 °C until further analysis. The digestion process was replicated four times for each sample. Digestion blanks in which the whole sample was replaced with 5 mL of water were also prepared in order to monitor the possible contributions of the enzymes and salts employed during in vitro digestion in the subsequent analytic determinations.
Non-digestion extraction was performed to allow a comparison with the samples digested in vitro. This employed the same temperature and time conditions and the same weight and volume ratios. Samples were extracted at 37 °C for 4 h and 2 min (the whole time for the simulated gastrointestinal digestion) with just Milli-Q water and without enzymes or simulated fluids in order to avoid food matrix degradation due to those components. After this, non-digested samples were centrifuged and filtered in the same way as the digested samples.
Characterization of polyphenols and methylxanthines from all the extract types (Org, Dig, and No_Dig) of the samples was performed with an untargeted metabolomics approach by using a rapid-resolution LC system (RRLC) 1200 series (Agilent Technologies, Waldbronn, Germany), including a binary pump, thermostatized autosampler, column oven, and a DAD detector. The RRLC system was coupled to a 6520 series electrospray ionization (ESI) source with a quadrupole time-of-flight (QTOF) mass spectrometer (Agilent Technologies). Compound separation was performed using an InfinityLab Poroshell 120EC-C18 column (2.1 × 100 mm, particle size of 2.7 μm) with a guard column (2.1 × 5 mm) (Agilent Technologies). […]

[3] = system: Caco-2 cells; settings: cited from earlier work; for Papp values: in purified extracts, ref Kosińska et al.
[4] = in vitro; settings: human, Caco-2

detection on the basolateral side [1] | concentration (log10-intensity) after gastrointestinal digestion in comparison with the other extraction types [2] | T2 values relative to T1 values (absorption percentage) [1] | apparent permeability coefficients [1] | T2 values relative to T1 values (absorption percentage) ([1]; human) | Papp [4] | SMILES | apparent permeability [3] | Papp values [3]
not detected | higher |  |  |  |  | Oc1cc(O)c2c(c1)O[C@H](c1ccc(O)c(O)c1)[C@H](O)[C@H]2c1c(O)cc(O)c2c1O[C@H](c1ccc(O)c(O)c1)[C@@H](O)C2 [PCB1, procyanidin B1] |  | 
 | decreased | 1.63-1.78 fold | 3.28-30.47 × 10^−6 cm/s |  |  | O.Oc1cc(O)c2c(c1)O[C@H](c1ccc(O)c(O)c1)[C@@H](O)C2 [catechin] | 0.8 ×10⁻⁶ cm/s | 4.19 ×10⁻⁶ cm/s
 | decreased |  |  | 1.56-1.86 fold | 3.28 to 30.5 ×10⁻⁶ cm/s | Oc1cc(O)c2c(c1)O[C@H](c1ccc(O)c(O)c1)[C@H](O)C2 [epicatechin] |  | 3.38 ×10⁻⁶ cm/s

SMILES | detection on the basolateral side [1] | concentration (log10-intensity) after gastrointestinal digestion in comparison with the other extraction types [2] | T2 values relative to T1 values (absorption percentage) [1] | apparent permeability coefficients [1] | T2 values relative to T1 values (absorption percentage) ([1]; human) | Papp [4] | apparent permeability [3] | Papp values [3]
Cn1c(=O)c2c(ncn2C)n(C)c1=O [caffeine, reference compound] |  | slightly decreased |  |  |  |  |  | 
